# From PubChem BioAssay (NCI)
# Several values for one entry are separate records, joined by “and”; a condition that tells them apart may be missing. Identical values can stand only once.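 How tested: cells in 96-well plates exposed to compound for 48 hours at five concentrations. GI50 marks 50% less growth. TGI: total growth inhibition.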
# Assays:
# Assay in all cases: NCI-60 cell line screen, 48 h
# RXF 393 renal = system: RXF 393 renal
# RPMI-8226 leukemia = system: RPMI-8226 leukemia
# SF-295 CNS = system: SF-295 CNS
# ACHN renal = system: ACHN renal
# HCT-15 colon = system: HCT-15 colon
# COLO 205 colon = system: COLO 205 colon
# SW-620 colon = system: SW-620 colon
# SK-MEL-5 melanoma = system: SK-MEL-5 melanoma
# HCC-2998 colon = system: HCC-2998 colon
# NCI-H23 lung = system: NCI-H23 lung
Compound,GI50 (RXF 393 renal),TGI (RXF 393 renal),GI50 (RPMI-8226 leukemia),TGI (RPMI-8226 leukemia),GI50 (SF-295 CNS),TGI (SF-295 CNS),GI50 (ACHN renal),TGI (ACHN renal),GI50 (HCT-15 colon),TGI (HCT-15 colon),GI50 (COLO 205 colon),TGI (COLO 205 colon),GI50 (SW-620 colon),TGI (SW-620 colon),GI50 (SK-MEL-5 melanoma),TGI (SK-MEL-5 melanoma),GI50 (HCC-2998 colon),TGI (HCC-2998 colon),GI50 (NCI-H23 lung),TGI (NCI-H23 lung)
N#C/C(=C1C=C/C(=N\O)C(Cl)=C\1)c1ccccc1,4.72 µM,18.2 µM,0.451 µM,4.41 µM,3.74 µM,> 100 µM,0.733 µM,11.6 µM,2.34 µM,11 µM,7.52 µM,24.4 µM,1.42 µM,12.9 µM,3.05 µM,10.3 µM,4.27 µM,15.8 µM,5.61 µM,65.6 µM
O=C(O)CP(=O)(O)O,–,> 100 µM,–,> 100 µM,–,> 100 µM,–,> 100 µM,–,> 100 µM,–,> 100 µM,–,> 100 µM,–,> 100 µM,–,> 100 µM,–,> 100 µM
N=c1n(Cc2ccccc2)c(N)cc(=O)n1Cc1ccccc1,1.87 µM,5.71 µM,3.58 µM,18.1 µM,2.68 µM,19.1 µM,0.747 µM,5.25 µM,3.49 µM,12.3 µM,3.97 µM,13.8 µM,3.05 µM,11.1 µM,1.9 µM,3.95 µM,4.96 µM,29.1 µM,1.48 µM,5.96 µM
O=S(=O)(CCNCc1ccc(-c2ccc3ncnc(Nc4ccc(OCc5cccc(F)c5)c(Cl)c4)c3c2)o1)c1ccccc1,> 25 µM,> 25 µM,> 25 µM,> 25 µM,> 25 µM,> 25 µM,18.9 µM,> 25 µM,> 25 µM,> 25 µM,> 25 µM,> 25 µM,> 25 µM,> 25 µM,> 20.5 µM,> 25 µM,> 25 µM,> 25 µM,> 25 µM,> 25 µM
NCCCNCCSSC/C=C\CSSCCNCCCN,83.3 µM and 30.6 µM,> 100 µM,–,> 100 µM,81.3 µM and 39.9 µM,> 100 µM,–,> 100 µM,–,> 100 µM,–,> 100 µM,–,> 100 µM,–,> 100 µM,–,> 100 µM,–,> 100 µM
CSc1nc(C)c(Br)c(=O)n1C1OC(COC(C)=O)C(OC(C)=O)C(OC(C)=O)C1OC(C)=O (centres undefined),–,49.2 µM and 40.7 µM,–,> 100 µM,–,79.7 µM and 70.8 µM,> 100 µM and 35.4 µM,> 100 µM,–,> 100 µM,–,> 100 µM,–,> 100 µM,> 100 µM and 19.2 µM,> 100 µM and 50.7 µM,–,> 100 µM,> 100 µM and 47 µM,> 100 µM
S=C(c1ccc2c(c1)OCO2)N1CCN(c2cccc(Cl)c2)CC1,10.9 µM,40.8 µM,0.598 µM,> 100 µM,0.387 µM,> 40.9 µM,13.4 µM,> 100 µM,0.524 µM,> 69.3 µM,0.706 µM,–,0.404 µM,> 100 µM,0.454 µM,> 100 µM,1.27 µM,16.4 µM,2.7 µM,> 100 µM
CS(=O)(=O)c1ccc(Oc2cc(F)cc(C#N)c2)c2c1[C@H](O)C(F)(F)C2,> 100 µM,> 100 µM,> 100 µM,> 100 µM,> 100 µM,> 100 µM,> 100 µM,> 100 µM,> 100 µM,> 100 µM,> 100 µM,> 100 µM,> 100 µM,> 100 µM,> 100 µM,> 100 µM,> 100 µM,> 100 µM,> 100 µM,> 100 µM
Brc1ccccc1C=NC12CC3CC(CC(C3)C1)C2,–,> 100 µM,–,> 100 µM,–,> 100 µM,–,> 100 µM,–,> 100 µM,–,> 100 µM,–,> 100 µM,–,> 100 µM,–,> 100 µM,–,> 100 µM
CC(=O)OC1Oc2cc(C)c(C)cc2-c2oc(=O)c(-c3ccc(F)cc3)cc21 (centres undefined),2.95 µM,8.71 µM,2.52 µM,9.04 µM,3.92 µM,> 100 µM,11.9 µM,> 100 µM,2.68 µM,19.1 µM,7.3 µM,26.1 µM,3.87 µM,28.8 µM,3.35 µM,17.2 µM,3.97 µM,28.2 µM,4.41 µM,42.7 µM
O=C1CCC(N2Cc3c(C#CCCCNC(=O)c4cc5c(o4)C(=O)c4ccccc4C5=O)cccc3C2=O)C(=O)N1 (centres undefined),4.55 µM,18.2 µM,6.93 µM,30.1 µM,2.84 µM,8.03 µM,12.6 µM,26 µM,16.4 µM,45.4 µM,2.3 µM,6.01 µM,3.05 µM,11.4 µM,1.75 µM,3.25 µM,2.63 µM,6.63 µM,1.58 µM,4.44 µM
C/C(=C\CCc1ccsc1)CC/C=C(\C)CCCN1CCC(CO)CC1,1.31 µM,3.19 µM,1.93 µM,4.15 µM,2 µM,4.13 µM,3.02 µM,11.5 µM,1.86 µM,4.01 µM,1.92 µM,3.95 µM,2.02 µM,4.77 µM,1.55 µM,2.95 µM,1.97 µM,3.77 µM,3.4 µM,12.9 µM
COc1ccc(C(=O)CC(=O)C(=O)Nc2ccc(C)c(C)c2)cc1,–,97.9 µM,–,> 68 µM,–,> 100 µM,–,> 100 µM,–,> 57.1 µM,–,> 82.4 µM,–,> 49.2 µM,–,> 100 µM,–,> 100 µM,–,> 100 µM
Cn1ccnc1C(=O)/C=C/c1ccc(CC(=O)Nc2ccc(F)cc2)cc1,3.89 µM,7.97 µM,1.02 µM,5.44 µM,4.55 µM,19.1 µM,5.74 µM,> 25 µM,1.29 µM,9.26 µM,4.39 µM,10.3 µM,1.97 µM,12 µM,4.45 µM,8.09 µM,3.78 µM,7.95 µM,3.04 µM,8.56 µM
